Results as given in patent publication US20220017516A1, “LOX INHIBITORS” (THE INSTITUTE OF CANCER RESEARCH: ROYAL CANCER HOSPITAL, priority 2018, published 2022).
Read-outs that look alike come from different tables or passages of the source.

Columns and labels:
[1] = biological target: T1, LOXL2 (Homo sapiens, UniProt Q9Y4K0); test: LOX isoform activity assay (ROS Glo), LOXL2; type: biochemical
T1 construct: purchased R&D Systems/Bio-techne
T1 sequence (Q9Y4K0 26-774): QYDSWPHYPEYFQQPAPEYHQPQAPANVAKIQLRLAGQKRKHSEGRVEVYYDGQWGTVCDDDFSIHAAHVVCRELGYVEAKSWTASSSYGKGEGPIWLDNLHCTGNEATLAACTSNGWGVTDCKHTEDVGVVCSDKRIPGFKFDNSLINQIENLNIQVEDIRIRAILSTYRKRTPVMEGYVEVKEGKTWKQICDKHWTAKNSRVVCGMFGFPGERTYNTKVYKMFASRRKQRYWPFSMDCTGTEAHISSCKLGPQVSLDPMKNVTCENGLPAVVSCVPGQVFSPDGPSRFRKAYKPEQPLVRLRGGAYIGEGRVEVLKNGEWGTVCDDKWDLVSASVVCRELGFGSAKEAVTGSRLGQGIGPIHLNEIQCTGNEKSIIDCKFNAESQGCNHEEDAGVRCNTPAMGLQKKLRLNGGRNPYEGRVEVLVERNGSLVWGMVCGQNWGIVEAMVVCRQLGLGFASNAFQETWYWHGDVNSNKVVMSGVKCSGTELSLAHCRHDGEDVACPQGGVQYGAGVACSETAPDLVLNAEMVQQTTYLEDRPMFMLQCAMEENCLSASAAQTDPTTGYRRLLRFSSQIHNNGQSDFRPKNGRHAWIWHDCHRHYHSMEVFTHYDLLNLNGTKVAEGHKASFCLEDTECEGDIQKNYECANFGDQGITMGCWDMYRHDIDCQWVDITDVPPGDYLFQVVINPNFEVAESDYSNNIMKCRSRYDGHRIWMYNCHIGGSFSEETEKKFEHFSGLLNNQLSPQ
Experimental: (§1) LOX was extracted from pig skin by previously described methods (Shackleton and Hulmes, 1990). LOXL2 and LOXL3 were obtained from R&D Systems/Bio-techne. The Promega ROS Glo assay kit (G8821) was used to assess enzyme activity. Overall, test compound was added to either 384 well assay plates (Greiner) using a Labcyte Echo™ Acoustic Handler or to 96 well plates for a final assay concentration of 100, 30, 10, 3, 1, 0.3, 0.1, 0.03, 0.01 and 0.003 μM final assay concentration. Enzymes were diluted according to specific pre-determined activity in assay buffer (100 mM CHES, pH 9, 0.05% (w/v) pluronic F-127, 0.5% (w/v) BSA, 1 mM MgCl2, 1 M urea, 100 mM NaCl) and added to the plate. For LOXL2, the mixture was incubated for 20 min, 1 h or 20 h; for LOX and LOXL3, incubation time was 1 h. Cadaverine and H2O2 substrate were then added to each well (final assay concentration 19.56 mM and 25 μM respectively) and the plates were incubated for 1.5 h (for LOX) or 1 h (for LOXL2 and LOXL3) at room temperature. Finally, luciferin detection reagent was added and plates were incubated for 20 min at room temperature, protected from light. Luminescence was measured using a BMG LABTECH PHERAstar FS reader and resulting IC50 values were calculated using GraphPad Prism software.
In another setting, LOXL2 enzyme was diluted according to specific pre-determined activity in assay buffer (100 mM CHES, pH 9, 0.05% (w/v) pluronic F-127, 0.5% (w/v) BSA, 1 mM MgCl2, 1 M urea, 100 mM NaCl). Overall, 0.5 μl test compound was added to 40 μl assay buffer+LOXL2 at 100, 30, 10, 3, 1, 0.3, 0.1, 0.03, 0.01 and 0.003 μM (final concentration) in a 96-well white polystyrene, flat bottom plates (Fisher) and incubated for the indicated time at room temperature. 10 μl of assay buffer containing 97.8 mM cadaverine and 125 μM H2O2 substrate (final assay concentration 19.56 mM and 25 μM respectively) were added to each well and plates were incubated for 1 h at room temperature. Finally, 50 μl per well luciferin detection reagent was added and plates were incubated for 20 min at room temperature, protected from light. Luminescence was measured with an integration time of 500 ms per well using a SpectaMax M5 plate reader and resulting IC50 values were calculated using GraphPad Prism software.

[2] = biological target: T2, LOX (Sus scrofa, UniProt P45845); test: LOX isoform activity assay (ROS Glo), LOX; type: biochemical, pig; conditions: 1 h incubation with enzyme
T2 construct: LOX was extracted from pig skin by previously described methods; from tissue; host or cells: pig skin
T2 sequence (P45845 1-249): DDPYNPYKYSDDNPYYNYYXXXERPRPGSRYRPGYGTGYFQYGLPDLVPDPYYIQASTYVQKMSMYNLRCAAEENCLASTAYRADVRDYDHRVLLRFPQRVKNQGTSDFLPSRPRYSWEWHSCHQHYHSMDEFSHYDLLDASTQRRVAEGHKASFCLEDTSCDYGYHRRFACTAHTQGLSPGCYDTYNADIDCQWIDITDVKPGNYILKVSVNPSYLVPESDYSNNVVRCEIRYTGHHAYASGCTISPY
Experimental: as §1

[3] = 20 hr incubation with enzyme; read-out: LOXL2 IC50 c) 20 hr
[4] = 1 hr incubation with enzyme; read-out: LOXL2 IC50 b) 1 hr

| IC50 [1, 3] [µM] | SMILES | IC50 [2] [µM] | IC50 [1, 4] [µM] | IC50 ([1]; 20 min incubation with enzyme; read-out: LOXL2 IC50 a) 20 min) [µM] |
| --- | --- | --- | --- | --- |
|  | CCOc1ccc(N2C[C@H]3CN(C(=O)C(C)S(=O)(=O)CCN)C[C@@H]2C(C)(C)C3)cc1 (mixture of isomers) [Example 39, 2-((2-aminoethyl)sulfonyl)-1-((1S,5S)-6-(4-ethoxyphenyl)-9,9-dimethyl-3,6-diazabicyclo[3.2.2]nonan-3-yl)propan-1-one] | 10 | 0.41 |  |
| 2.5 | CCOc1ccc(N2C[C@H]3CN(CCCS(=O)(=O)CCN)C[C@@H]2C(C)(C)C3)cc1 [Example 6, 2-((3-((1R,5S)-6-(4-ethoxyphenyl)-9,9-dimethyl-3,6-diazabicyclo[3.2.2]nonan-3-yl)propyl)sulfonyl)ethan-1-amine] | 58 |  |  |
| 0.94 | CC1(C)C[C@@H]2CN(C(=O)CS(=O)(=O)CCN)C[C@H]1N(c1ccc(N3CCS(=O)(=O)CC3)cc1)C2 [Example 10, 2-((2-aminoethyl)-sulfonyl)-1-((1S,5S)-6-(4-(1,1-dioxido-thiomorpholino)-phenyl)-9,9-dimethyl-3,6-diaza-bicyclo[3.2.2]nonan-3-yl)ethan-1-one] |  |  |  |
| 0.48 | CC1(C)C[C@@H]2CN(CCS(=O)(=O)CCN)C[C@H]1N(c1ccc(N3CCS(=O)(=O)CC3)cc1)C2 [Example 5, 4-(4-((1R,5S)-3-(2-((2-aminoethyl)sulfonyl)ethyl)-9,9-dimethyl-3,6-diazabicyclo[3.2.2]nonan-6-yl)phenyl)thiomorpholine 1,1-dioxide] |  |  |  |
|  | CCOc1ccc(N2C[C@H]3CN(C(=O)c4ccc(S(=O)(=O)CCN)cc4)C[C@@H]2C(C)(C)C3)cc1 [Example 31, (4-((2-aminoethyl)sulfonyl)phenyl)((1S,5S)-6-(4-ethoxyphenyl)-9,9-dimethyl-3,6-diazabicyclo[3.2.2]nonan-3-yl)methanone] | 96 |  | 16 |
| 6.7 | CC1(C)C[C@@H]2CN(C(=O)N3CCS(=O)(=O)CC3)C[C@H]1N(c1ccc(OCCCS(=O)(=O)CCN)cc1)C2 [Example 35, ((1S,5S)-6-(4-(3-((2-aminoethyl)sulfonyl)-propoxy)phenyl)-9,9-dimethyl-3,6-diaza-bicyclo[3.2.2]nonan-3-yl)(1,1-dioxido-thiomorpholino) methanone] |  |  |  |
|  | CC1(C)C[C@@H]2CN(C(=O)C(F)S(=O)(=O)CCN)C[C@H]1N(c1ccc(N3CCS(=O)(=O)CC3)cc1)C2 (stereo partly drawn) [Example 17, 2-((2-aminoethyl)-sulfonyl)-1-((1S,5S)-6-(4-(1,1-dioxido-thiomorpholino)-phenyl)-9,9-dimethyl-3,6-diaza-bicyclo[3.2.2]nonan-3-yl)-2-fluoroethan-1-one] |  | 0.11 |  |

| SMILES | IC50 [1, 3] [µM] | IC50 [2] [µM] | IC50 [1, 4] [µM] | IC50 ([1]; 20 min incubation with enzyme; read-out: LOXL2 IC50 a) 20 min) [µM] |
| --- | --- | --- | --- | --- |
| CC1(C)C[C@@H]2CN(C(=O)NCCO)C[C@H]1N(c1ccc(OCCCS(=O)(=O)CCN)cc1)C2 [Example 34, (1S,5S)-6-(4-(3-((2-aminoethyl)sulfonyl)propoxy)phenyl)-N-(2-hydroxyethyl)-9,9-dimethyl-3,6-diazabicyclo[3.2.2]nonane-3-carboxamide] | 9.3 |  |  |  |
| CCOc1ccc(N2C[C@@H]3CC[C@H]2CN(C(=O)CS(=O)(=O)CCN)C3)cc1 [Example 9, 2-((2-aminoethyl)-sulfonyl)-1-((1S,5S)-6-(4-ethoxyphenyl)-3,6-diazabicyclo-[3.2.2]nonan-3-yl)-ethan-1-one] | 0.34 | > 100 |  |  |
| CCNC(=O)N1C[C@@H]2CN(c3ccc(OCCCS(=O)(=O)CCN)cc3)[C@H](C1)C(C)(C)C2 [Example 36, (1S,5S)-6-(4-(3-((2-aminoethyl)sulfonyl)propoxy)phenyl)-N-ethyl-9,9-dimethyl-3,6-diazabicyclo[3.2.2]nonane-3-carboxamide] | 5.1 | 4.5 |  |  |
